Assay results: patent US11242347B2, “2-phenyl-3,4-dihydropyrrolo[2,1-Ff] [1,2,4]triazinone derivatives as phosphodiesterase inhibitors and uses thereof” (TOPADUR PHARMA AG, priority 2015, dated 2022)
Where two headings read alike, the source gives them in different places. One block for each compound: values may come before it.

Tests used:
[1] = target: human phosphodiesterase-5 (PDE5 enzyme isolated from human platelets) (Homo sapiens (Human), UniProt O76074); assay: PDE5 assay: formation of 5′GMP from cGMP (SPA)
Description: Evaluation of the effects of compounds of the present invention on the activity of the human phosphodiesterase-5 quantified by measuring the formation of 5′GMP from cGMP using PDE5 enzyme isolated from human platelets.
Thereafter, the reaction is initiated by addition of the enzyme and the mixture is incubated for 60 min at 22° C.
For basal control measurements, the enzyme is omitted from the reaction mixture. Following incubation SPA beads are added. After 20 min at 22° C. under shaking, the amount of [3H]5′GMP is quantified with a scintillation counter (Topcount, Packard).
The standard inhibitory reference compound is dipyridamole, which is tested in each experiment at several concentrations to obtain an inhibition curve from which its IC50 value is calculated.

[2] = tested on: phenylephrine-precontracted rat aortic rings; assay: Isometric tension studies: relaxation of phenylephrine-precontracted rat aortic rings; conditions: for IC40: concentration where 40% relaxation was achieved; for EC50 / Emax: Rattus norvegicus
Description: After 1 week of acclimatization, rats were anesthetized. Appropriate depth of anesthesia was determined by the absence of the leg flexor response and the eyelid reflex. Then, the thorax was quickly opened by a midline incision, and the rat was sacrificed by cutting the heart and exsanguination.
Indomethacin (1 μM) was added to the saline solution.
Eligible rings were then washed several times to restore tension to the baseline level.
In some experiments, the entire length of the thoracic aorta was functionally denuded of the endothelial layer by gently scraping the luminal surface with a 1.5 mm glass rod. […] Rings were then washed several times to restore tension to the baseline level.
Indomethacin (1 μM) was added to the saline solution. […] Only vessels with at least 60% relaxation to 1 μM ACh from the tension with 300 nM were eligible.
The preparations were allowed to equilibrate for 60 min in Krebs with high glucose (25 mM) before contraction to a new single concentration of PE (300 nM).
Finally, sodium nitroprusside (0.1 mM) was added, in order to obtain maximum relaxation of arterial rings.
The amount of relaxation (percent values as means±SEM) was quantified as percent relaxation from the tension (plateau) achieved with phenylephrine.
Data are presented as mean±SEM. Statistical analysis of results has been performed by analysis of variance (ANOVA) either parametric or non-parametric (Kruskal-Wallis), followed by Bonferroni test or Dunn tests as appropriate (GraphPad Software Inc, San Diego, Calif., USA). Significance was accepted when P<0.05. Non-linear regression was conducted with GraphPad Software).

[3] = tested on: human pulmonary artery smooth muscle cells (hPASMC); assay: Measurements of cGMP in human pulmonary artery smooth muscle cells (hPASMC); format: cell-based; conditions: incubation 15 or 30 min; compared with sildenafil
Description: Human Pulmonary Artery Smooth Muscle Cells (hPASMC) were purchased from Clonetics™ Lonza (Lonza, reference number CC-2581) and cultured in Clonetics' smooth muscle growth medium (Clonetics™ SmGM™-2 with BulletKit™ growth factor supplements (Lonza, reference number CC-3182) at 37° C. in 5% CO2. Culture medium was replaced each 48 hours. Cells were grown in 75 cm^2 culture plates.
48 h before the experiments, cells were trypsinized (Trypsin kit One ReagentPack™ (CC-5034), Lonza) and plated in 96 well plates precoated with collagen I at 10000 cells per well. 24 h before the experiments culture medium was replaced by serum-reduced (0.5% FBS) medium.
Measurements of intracellular cGMP were performed using the Amersham cGMP EIA System (GE Healthcare, RPN226) following the instructions of the manufacturer. The assay has a sensitivity of 2 fmol cGMP per well. Briefly, incubations were terminated by adding Amersham's lysis buffer 1 and cells left for 10 min under agitation to ensure complete lysis. cGMP in samples was then acetylated using triethylamine and acetic anhydride and determined by a competitive ELISA. The ELISA is based on the competition between acetylated cGMP in cell culture lysates and a peroxidase-labelled cGMP conjugate for limited binding sites on a cGMP specific antiserum immobilized on pre-coated 96 well MTP. cGMP was determined based on a standard curve. […]

[4] = 5.0E−09M, percent inhibition of the control enzyme activity

Compound: CCCc1c(C(O)CC#N)c(C)c2c(=O)[nH]c(-c3cc(S(=O)(=O)N4CCN(C)CC4)ccc3OCC)nn12 (centres unmarked) [Compound 1u, 3-(2-(2-ethoxy-5-((4-methylpiperazin-1-yl)sulfonyl)phenyl)-5-methyl-4-oxo-7-propyl-3,4-dihydropyrrolo[2,1-f][1,2,4]triazin-6-yl)-3-hydroxy propanenitrile]
IC50 [1]: 1.5 nM | % inhibition at 5.0E−09M [1, 4]: 50.3%

Compound: CCCc1c(/C=N/O)c(C)c2c(=O)[nH]c(-c3cc(S(=O)(=O)N4CCN(CCCO[N+](=O)[O-])CC4)ccc3OCC)nn12 [Compound 1ao, (E)-3-(4-(4-ethoxy-3-(6-((hydroxyimino)methyl)-5-methyl-4-oxo-7-propyl-3,4-dihydropyrrolo[1,2-f][1,2,4]triazin-2-yl)phenylsulfonyl)piperazin-1-yl)propyl nitrate]
IC50 [1]: 12 nM | % inhibition at 5.0E−09M [1, 4]: 70.6%

Compound: CCCc1c(/C=N/O)c(C)c2c(=O)[nH]c(-c3cc(S(=O)(=O)N4CCC(CCO[N+](=O)[O-])CC4)ccc3OCC)nn12 [Compound 1am, (E)-2-(1-(4-ethoxy-3-(6-((hydroxyimino)methyl)-5-methyl-4-oxo-7-propyl-3,4-dihydropyrrolo[1,2-f][1,2,4]triazin-2-yl)phenylsulfonyl)piperidin-4-yl)ethyl nitrate]
% inhibition at 5.0E−09M [1]: 25.1% | IC50 [1]: 66 nM

Compound: (E)-2-(4-(4-ethoxy-3-(6-((2-hydroxyethoxyimino)methyl)-5-methyl-4-oxo-7-propyl-3,4-dihydropyrrolo[1,2-f][1,2,4]triazin-2-yl)phenylsulfonyl)piperazin-1-yl)ethyl nitrate [Compound 1ak]
% inhibition at 5.0E−09M [1]: 8.3%

Compound: CCCc1nn(C)c2c(=O)[nH]c(-c3cc(S(=O)(=O)N4CCN(C)CC4)ccc3OCC)nc12 [sildenafil, reference compound]
IC40 ([2]; High Glucose (25 mM)): 826.989 nM | IC40 ([2]; Intact Endothelium (E+)): 0.194 nM | IC40 ([2]; L-NAME (100 μM)): 95.659 nM | EC50 ([2]; High Glucose (25 mM)): 20.4 nM | Emax ([2]; High Glucose (25 mM)): 49.1% | EC50 ([2]; Intact Endothelium (E+)): 0.186 nM | Emax ([2]; Intact Endothelium (E+)): 79.3% | EC50 ([2]; L-NAME (100 μM)): 5.8 nM | Emax ([2]; L-NAME (100 μM)): 51.4% | EC50 ([2]; Without Endothelium): 20.6 nM | Emax ([2]; Without Endothelium): 36.4% | IC40 ([2]; Without Endothelium): >1000 nM

Compound: CCCc1c(CO)c(C)c2c(=O)[nH]c(-c3cc(S(=O)(=O)N4CCN(C)CC4)ccc3OCC)nn12 [Compound 1b, 2-(2-ethoxy-5-((4-methylpiperazin-1-yl)sulfonyl)phenyl)-6-(hydroxymethyl)-5-methyl-7-propylpyrrolo[2,1-f][1,2,4]triazin-4(3H)-one]
IC50 [1]: 12 nM | % inhibition at 5.0E−09M [1, 4]: 34.0%

Compound: CCCc1cc(C)c2c(=O)[nH]c(-c3cc(S(=O)(=O)N4CCN(CCCO)CC4)ccc3OCC)nn12 [Compound 1ap, 2-(2-ethoxy-5-((4-(3-hydroxypropyl)piperazin-1-yl)sulfonyl)phenyl)-5-methyl-7-propylpyrrolo [2,1-f][1,2,4]triazin-4(3H)-one]
IC50 [1]: 2.8 nM | % inhibition at 5.0E−09M [1, 4]: 69.2%

Compound: (E)-2-(4-(4-ethoxy-3-(6-((methoxyimino)methyl)-5-methyl-4-oxo-7-propyl-3,4-dihydropyrrolo[1,2-f][1,2,4]triazin-2-yl)phenylsulfonyl)piperazin-1-yl)ethyl nitrate [Compound 1ai]
% inhibition at 5.0E−09M [1]: 0.3%

Compound: CCCOc1ccc(S(=O)(=O)N2CCC(CCO[N+](=O)[O-])CC2)cc1-c1nn2c(CCC)c(/C=N/O)c(C)c2c(=O)[nH]1 [Compound 1v, (E)-2-(1-((3-(6-((hydroxyimino)methyl)-5-methyl-4-oxo-7-propyl-3,4-dihydropyrrolo[2,1-f][1,2,4]triazin-2-yl)-4-propoxyphenyl)sulfonyl)piperidin-4-yl)ethyl nitrate]
cGMP formation in hPASMC, activity in words [3]: significantly higher activity as compared to the reference inhibitor sildenafil | IC40 ([2]; High Glucose (25 mM)): 0.66 nM | IC40 ([2]; Intact Endothelium (E+)): 0.0082 nM | IC40 ([2]; L-NAME (100 μM)): 1.412 nM | EC50 ([2]; High Glucose (25 mM)): 0.181 nM | Emax ([2]; High Glucose (25 mM)): 64.2% | EC50 ([2]; Intact Endothelium (E+)): 0.0111 nM | Emax ([2]; Intact Endothelium (E+)): 85.1% | EC50 ([2]; L-NAME (100 μM)): 0.267 nM | Emax ([2]; L-NAME (100 μM)): 62% | EC50 ([2]; Without Endothelium): 0.218 nM | Emax ([2]; Without Endothelium): 48.7% | lower concentration for 40% relaxation related to sildenafil ([2]; Without Endothelium): > 130 fold | IC40 ([2]; Without Endothelium): 7.527 nM | more potent relaxation as compared to sildenafil (based on EC50) ([2]; absence of endothelium): about 95 fold | more potent relaxation as compared to sildenafil (based on EC50) ([2]; intact endothelium): about 17 fold | relaxation of rat aortic rings, result in words ([2]; intact endothelium (FIG. 2A)): more potent and effective than Sildenafil | more potent relaxation as compared to sildenafil (based on EC50) ([2]; intact endothelium, pre-exposed to high (25 mM) glucose for 60 min): about 110 fold | relaxation of rat aortic rings, result in words ([2]; pre-exposed to high glucose (25 mM) (FIG. 2B)): clearly more potent and efficacious than 1r | more potent relaxation as compared to sildenafil (based on EC50) ([2]; presence of L-NAME): about 22 fold | lower concentration for 40% relaxation related to sildenafil ([2]; with L-NAME): ~68 fold | lower concentration for 40% relaxation related to sildenafil ([2]; with high glucose): ~1250 fold | lower concentration for 40% relaxation related to sildenafil ([2]; with intact endothelium): about 24 fold

Continued, values first:

% inhibition at 5.0E−09M [1, 4]: 84.9%
Compound: CCCc1c(/C=N/O)c(C)c2c(=O)[nH]c(-c3cc(S(=O)(=O)N4CCN(CCCO)CC4)ccc3OCC)nn12 [Compound 1an, (E)-2-(2-ethoxy-5-(4-(3-hydroxypropyl)piperazin-1-ylsulfonyl)phenyl)-5-methyl-4-oxo-7-propyl-3,4-dihydropyrrolo[1,2-f][1,2,4]triazine-6-carbaldehyde oxime]

% inhibition at 5.0E−09M [1, 4]: 83.0%
Compound: CCCOc1ccc(S(=O)(=O)N2CCN(C)CC2)cc1-c1nn2c(CCC)c(/C=N/OC)c(C)c2c(=O)[nH]1 [Compound 1o, (E)-5-methyl-2-(5-((4-methylpiperazin-1-yl)sulfonyl)-2-propoxyphenyl)-4-oxo-7-propyl-3,4-dihydropyrrolo[2,1-f][1,2,4]triazine-6-carbaldehyde O-methyl oxime]

% inhibition at 5.0E−09M [1, 4]: 77.6%
Compound: CCCc1c(/C=N/O)c(C)c2c(=O)[nH]c(-c3cc(S(=O)(=O)N4CCN(C)CC4)ccc3OCC)nn12 [Compound 1a, (E)-2-(2-ethoxy-5-((4-methylpiperazin-1-yl)sulfonyl)phenyl)-5-methyl-4-oxo-7-propyl-3,4-dihydropyrrolo[2,1-f][1,2,4]triazine-6-carbaldehyde oxime]

% inhibition at 5.0E−09M [1, 4]: 33.0%
Compound: CCCOc1ccc(S(=O)(=O)N2CCN(CCO)CC2)cc1-c1nn2c(CCC)c(CO)c(C)c2c(=O)[nH]1 [Compound 1n, 2-(5-((4-(2-hydroxyethyl)piperazin-1-yl)sulfonyl)-2-propoxyphenyl)-6-(hydroxymethyl)-5-methyl-7-propylpyrrolo[2,1-f][1,2,4]triazin-4(3H)-one]

% inhibition at 5.0E−09M [1, 4]: 44.9%
Compound: CCCc1c(C(O)CC(=O)NO)c(C)c2c(=O)[nH]c(-c3cc(S(=O)(=O)N4CCN(C)CC4)ccc3OCC)nn12 (centres unmarked) [Compound 1t, 3-(2-(2-ethoxy-5-((4-methylpiperazin-1-yl)sulfonyl)phenyl)-5-methyl-4-oxo-7-propyl-3,4-dihydropyrrolo[2,1-f][1,2,4]triazin-6-yl)-N,3-dihydroxy propanamide]

% inhibition at 5.0E−09M [1, 4]: 84.9%
Compound: CCCc1c(/C=N/O)c(C)c2c(=O)[nH]c(-c3cc(S(=O)(=O)N4CCC(CCO)CC4)ccc3OCC)nn12 [Compound 1al, (E)-2-(2-ethoxy-5-(4-(2-hydroxyethyl)piperidin-1-ylsulfonyl)phenyl)-5-methyl-4-oxo-7-propyl-3,4-dihydropyrrolo[1,2-f][1,2,4]triazine-6-carbaldehyde oxime]

% inhibition at 5.0E−09M [1, 4]: 74.5%
Compound: CCCc1c(/C=N/O)c(C)c2c(=O)[nH]c(-c3cc(S(=O)(=O)N4CCN(CCO[N+](=O)[O-])CC4)ccc3OCC)nn12 [Compound 1af, (E)-2-(4-((4-ethoxy-3-(6-((hydroxyimino)methyl)-5-methyl-4-oxo-7-propyl-3,4-dihydropyrrolo[2,1-f][1,2,4]triazin-2-yl)phenyl)sulfonyl)piperazin-1-yl)ethyl nitrate]

% inhibition at 5.0E−09M [1, 4]: 75.5%
Compound: CCCc1c(C=O)c(C)c2c(=O)[nH]c(-c3cc(S(=O)(=O)N4CCN(CCO)CC4)ccc3OCC)nn12 [Compound 1w, 2-(2-ethoxy-5-((4-(2-hydroxyethyl)piperazin-1-yl)sulfonyl)phenyl)-5-methyl-4-oxo-7-propyl-3,4-dihydropyrrolo[2,1-f][1,2,4]triazine-6-carbaldehyde]

% inhibition at 5.0E−09M [1, 4]: 1.3%
Compound: CCCOc1ccc(S(=O)(=O)N2CCC(CCO[N+](=O)[O-])CC2)cc1-c1nn2c(CCC)c(/C=N\O)c(C)c2c(=O)[nH]1 [Compound 1aq, (Z)-2-(1-((3-(6-((hydroxyimino)methyl)-5-methyl-4-oxo-7-propyl-3,4-dihydropyrrolo[2,1-f][1,2,4]triazin-2-yl)-4-propoxyphenyl)sulfonyl)piperidin-4-yl)ethyl nitrate]
